Assay results: US20220275458A1, “PREDICTION OF CANCER THERAPY EFFICACY” (UNIVERSITY OF MASSACHUSETTS, priority 2019, published 2022)

Tests used:
[1] = tested on: RPE1 cells; assay: Cell survival assays in Control, FANCJ K/O and BRCA1 K/O RPE1 cells; format: cell-based, human; conditions: for sensitivity at therapeutic range: 0.5 uM Olaparib
Method: (§1) Cells were seeded onto 96-well plates (500 cells per well, performed in triplicate for each experiment group) and incubated overnight. The next day, cells were treated with increasing doses of drugs indicated in corresponding figures and maintained in complete media for 5 to 7 days. Percentage survival was measured photometrically using a CellTiter-Glo 2.0 viability assay (Promega) in a microplate reader (Beckman Coulter DTX 880 Multimode Detector).

[2] = tested on: U2OS cells; assay: Electron microscopy of reversed replication forks; format: cell-based, human; conditions: 4 mM HU
Method: To investigate the effect of TLS on the fine replication fork architecture, psoralen cross-linking coupled to reversed fork intermediates were detected with electron microscopy (EM) with or without elevated TLS. Following 4 mM HU treatment, a substantial fraction of reversed replication forks were found in FANCJ^WT and empty vector U2OS cells (˜26% and 23%, respectively). […] See, FIG. 6D.
For the EM analysis of replication intermediates, 5-10×10^6 U2OS cells treated with or without 4 mM HU were collected and genomic DNA was cross-linked by two rounds of incubation in 10 μg ml-1 4,5,8-trimethylpsoralen (Sigma-Aldrich) and 3 min of irradiation with 366 nm UV light on a precooled metal block10,26. Cells were lysed and genomic DNA was isolated from the nuclei by proteinase K (Roche) digestion and phenol-chloroform extraction. DNA was purified by isopropanol precipitation, digested with PvuII HF in the proper buffer for 3-5 h at 37° C. and replication intermediates were enriched on a benzoylated naphthoylated DEAE-cellulose (Sigma-Aldrich) column. EM samples were prepared by spreading the DNA on carbon-coated grids in the presence of benzyl-dimethyl-alkylammonium chloride and visualized by platinum rotary shadowing. Images were acquired on a transmission electron microscope (JEOL 1200 EX) with side-mounted camera (AMTXR41 supported by AMT software v601) and analyzed with ImageJ (National Institutes of Health). EM analysis allows distinguishing duplex DNA—which is expected to appear as a 10 nm thick fiber, after the platinum/carbon coating step necessary for EM visualization—from ssDNA, which has a reduced thickness of 5-7 nm. The criteria used for the unequivocal assignment of reversed forks include the presence of a rhomboid structure at the junction itself in order to provide a clear indication that the junction is opened up and that the four-way junction structure is not simply the result of the occasional crossing of two DNA molecules^25. […]

[3] = tested on: pro-TLS U2OS and HCT15 cells; assay: Colony formation assay with ATRi or Wee1i alone or with TLSi; format: cell-based, human; conditions: for clonogenic survival: pro-TLS U2OS cells compared to non-TLS dependent cells; for response in colony formation assay: pro-TLS cancer cell line HCT15
Method: Currently, there is a major clinical effort to combat cancer by induction of replication stress through inhibition of ATR or the mitotic checkpoint kinase, Wee1 (Bukhari et al., 2019). Given that these drugs induce replication gaps, it was considered that if gaps were the sensitizing lesion, TLS could also interfere with their effectiveness. […] See, FIG. 55A, 5B and FIG. 56A-D; (Bukhari et al., 2019).
For colony formation assays either 500 or 1000 cells per well were seeded into 6 well plates and were treated continuously with or without TLSi. Once the colonies had developed, the cells were fixed with 90% methanol and then stained with 0.05% (w/v) crystal violet solution. Plates were then imaged using ChemiDocTM Touch Imaging System (BioRad).

[4] = tested on: BR5-R1 cells; assay: Cell survival assays for T2, BR5 and BR5-R1 cells; format: cell-based, mouse; conditions: BR5-R1 PARPi-resistant cells; VE-821 1 μM co-incubated with olaparib
Method: To determine whether gap suppression mechanisms occur in models of de novo PARPi resistance, cell lines were analyzed that were initially sensitive to PARPi and then had gained PARPi resistance while propagated in tissue culture^41. BRCA1-deficient mouse ovarian tumor cell line, BR5, was utilized and its derived PARPi-resistant cell line, BR5-R1^41. PARPi sensitivity of BR5 was confirmed as compared to BR5-R1 and BRCA1 proficient T2 cells. See, FIG. 41A. […] See, FIG. 41B. […] See, FIGS. 41B and 41C. Thus, BR5-R1 cells resemble FANCJ deficient cells, in that they both lack PARPi induced-sensitivity, lengthening, or gaps, but remain sensitive to cisplatin. See, FIG. 42A. […] See, FIGS. 41A, 41C and 42A.
as §1

[5] = tested on: TLS cancer vs non-TLS cancer or non-cancer cells; assay: Combined assay: EdU replication and ssDNA gaps (TLS specificity); format: cell-based, human; conditions: U2OS cell lines; HU plus ATR inhibitor
Method: A combination assay was performed in a high-throughput manner using 384-well plates. This assay served as a rapid and efficient method to determine the anti-TLS activity of the lead compounds and novel analogues. […] Specifically, the assay identifies compounds that cause TLS cells, but not non-TLS cells, to lose replication (green) and gain ssDNA gaps (red). […] Colors can be identified using a high content and high throughput imaging camera. […] Moreover, red and green fluorescent readouts are readable/quantifiable from full well images at 20×. Several positive and negative controls that may be employed in parallel with the screen to induce gaps or suppress gaps. In particular, under these assay conditions replication with gaps are induced when ATR is inhibited.
A combined assay can be performed to first analyze the ability of these TLSi's to inhibit global replication with concomitant induction of ssDNA in TLS cancer vs non-TLS cancer or non-cancer cells. Second, a colony formation assays in each of these models to determine whether the TLSi's selectively reduce colony formation in TLS cancer cells.
Immunofluorescence was performed as described previously^27. Cells were grown on coverslips in 10 μM BrdU for 48 h before the treatment with drugs. Cells were then treated with the aforementioned drugs for 2 h. […]

[6] = tested on: PEO1 and C4-2 cells; assay: Cell survival assay, cisplatin, PEO1 and C4-2; format: cell-based, human
Method: Cells were plated at 500 cells per well in the center wells of a 96 well plate in 200 ul volume and allowed to adhere for 36 h. Subsequently, drugs were added in a 100 ul volume and the cells were incubated for 10 days. CellTiter-Glo 2.0 (Promega) was used to quantify cell number by ATP. To prevent evaporation, all blank wells in the 96 well plate were filled with media, and each plate was placed in a humid chamber with PBS.

[7] = tested on: BRCA-RAD51 pathway proficient or deficient cell lines; assay: PARPi response of model cell systems (Table 4 summary); format: cell-based
Method: In the above tested model systems, HR or FP sometimes correlate with PARPi resistance whereas ssDNA gap suppression always correlates. Moreover, defects in HR or FP sometimes correlate with PARPi sensitivity whereas gaps always correlate.
as §1

[8] = tested on: RPE1 cells; assay: DNA fiber assay following olaparib treatment; format: cell-based, human; conditions: 10 μM olaparib, 2 h
Method: Cells were labeled by sequential incorporation of two different nucleotide analogs, IdU and CldU, into nascent DNA strands for the indicated time and conditions. After nucleotide analogs were incorporated in vivo, the cells were collected, washed, spotted, and lysed on positively charged microscope slides by […] spreading buffer for 8 min at room temperature. For experiments with the ssDNA-specific endonuclease S1, after the CldU pulse, cells were treated with CSK100 buffer for 10 min at room temperature, then incubated with S1 nuclease buffer with or without 20 U/mL S1 nuclease (Invitrogen, 18001-016) for 30 min at 37 C. The cells were then scraped in PBS +0.1% BSA and centrifuged at 7,000 rpm for 5 min at 4 C. Cell pellets were resuspended at […] and lysed with lysis solution on slides. Individual DNA fibers were released and spread by tilting the slides at 45 degrees. After air-drying, fibers were fixed by 3:1 methanol/acetic acid at room temperature for 3 min. After air-drying again, fibers were rehydrated in PBS, denatured with 2.5 M HCl for 30 min, washed with PBS, and blocked with blocking buffer for 1 hr. […] Finally, visualization of green and/or red signals by fluorescence microscopy (Axioplan 2 imaging, Zeiss) provided information about the active replication directionality at the single-molecule level.

## CC[C@@]1(O)C(=O)OCc2c1cc1n(c2=O)Cc2cc3ccccc3nc2-1 [CPT, camptothecin]
[1]; FANCJ K/O RPE1 cells, CPT
  sensitivity in cell survival assay: sensitive

## NC(=O)NO [HU, hydroxyurea]
[2]; FANCJ S990A U2OS cells
  frequency of fork reversal events: ~11%
[2]; FANCJ WT U2OS cells
  fraction of reversed replication forks: ~26%
[2]; empty vector U2OS cells
  fraction of reversed replication forks: 23%

## C=CCn1c(=O)c2cnc(Nc3ccc(N4CCN(C)CC4)cc3)nc2n1-c1cccc(C(C)(C)O)n1 [MK1775]
[3]
  clonogenic survival: greater clonogenic survival
  response in colony formation assay: resistance

## CS(=O)(=O)c1ccc(-c2cnc(N)c(C(=O)Nc3ccccc3)n2)cc1 [VE-821]
[4]
  effect on PARPi sensitivity: re-established PARPi sensitivity
[3]
  clonogenic survival: greater clonogenic survival
  response in colony formation assay: resistance
[5]
  replication and ssDNA gaps during stress: promoted replication during stress, but with significant ssDNA gap induction

## N.N.[Cl][Pt][Cl] [cisplatin]
[6]; C4-2 cells, BRCA2 proficient PEO1 reversion line
  cisplatin response: resistant
[6]; PEO1 cells, truncated BRCA2
  cisplatin response: hypersensitive
[1]; BRCA1 K/O RPE1 cells, cisplatin
  sensitivity in cell survival assay: sensitive
[1]; FANCJ K/O RPE1 cells, cisplatin
  sensitivity in cell survival assay: sensitive

## O=C(c1cc(Cc2n[nH]c(=O)c3ccccc23)ccc1F)N1CCN(C(=O)C2CC2)CC1 [olaparib]
[7]; BRCA1/2 deficient
  PARPi response: sensitive
[7]; BRCA1/2 proficient
  PARPi response: resistant
[7]; BRCA1 and 53BP1 deficient
  PARPi response: resistant
[7]; BRCA2 S3291A mutant
  PARPi response: resistant
[7]; BRCA2 and CHD4 deficient
  PARPi response: resistant
[7]; FANCJ deficient
  PARPi response: resistant
[7]; RAD51 T131P mutant
  PARPi response: sensitive
[7]; RAD51 T131P mutant and RADX deficient
  PARPi response: sensitive
[1]; BRCA1 K/O RPE cells
  sensitivity at therapeutic range: sensitive
[1]; control and FANCJ K/O cells
  sensitivity at therapeutic range: not sensitive
[1]; BRCA1 K/O RPE1 cells, olaparib
  sensitivity in cell survival assay: sensitive
[1]; FANCJ K/O RPE1 cells, olaparib
  sensitivity in cell survival assay: not sensitize
[8]
  replication tract length: lengthens replication tracts
